According to patent US11590116B2 (THERAVANCE BIOPHARMA R&D IP, LLC, priority 2019, dated 2023):
Where two headings read alike, the source gives them in different places.

Columns and labels:
[1] = biological target: T1, recombinant human ALK5 (TGF-βR1) protein (Homo sapiens, UniProt P36897); test: Biochemical ALK5 (TGF-βR1) assay to measure pKi (LANCE Ultra ULight kinase assay); conditions: apparent pKi from pIC50 by Cheng-Prusoff, read-out: ALK5 pKi (converted)
T1 construct: purchased Life Technologies PR9075A
T1 sequence (P36897 34-503): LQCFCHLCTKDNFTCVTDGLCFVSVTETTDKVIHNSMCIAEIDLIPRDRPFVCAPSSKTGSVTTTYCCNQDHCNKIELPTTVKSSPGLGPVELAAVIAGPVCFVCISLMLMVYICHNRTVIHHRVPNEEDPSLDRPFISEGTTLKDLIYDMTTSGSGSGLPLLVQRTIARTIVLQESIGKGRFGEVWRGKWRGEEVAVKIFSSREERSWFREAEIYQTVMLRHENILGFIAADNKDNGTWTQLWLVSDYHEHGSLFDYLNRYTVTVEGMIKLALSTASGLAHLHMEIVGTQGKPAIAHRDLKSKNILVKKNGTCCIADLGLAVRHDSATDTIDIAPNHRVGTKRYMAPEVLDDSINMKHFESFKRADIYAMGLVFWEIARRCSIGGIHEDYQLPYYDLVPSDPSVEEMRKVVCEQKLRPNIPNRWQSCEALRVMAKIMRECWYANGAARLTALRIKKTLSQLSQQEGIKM
Procedure, shortened: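 Compounds (10 μM to 25 pM) preincubated 60 minutes at room temperature with enzyme, then reaction run 60 minutes at 37° C with ATP added as 125 μM (5× final). Stopped with EDTA plus Eu-anti-phospho-Topoisomerase 2-alpha (Thr1342) antibody, TR-FRET read at 665 nm; pIC50 converted to pKi via Cheng-Prusoff.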

[2] = test system: TGF-β-stimulated SMAD3 phosphorylation in BEAS-2B cells; test: Cellular ALK5 potency assay, inhibition of TGF-β stimulated pSMAD3 formation in BEAS-2B cells; assay type: cell-based; conditions: Homo sapiens, read-out: BEAS2B pIC50 (converted)
Procedure, shortened: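 AlphaLISA pSMAD3 read-out, beads incubated overnight. Human BEAS-2B cells: 1 h compound preincubation (37 °C, 5% CO2), then 30 min TGF-β at 10 ng/mL final, immediate lysis. Values are pIC50 relative to stimulated, compound-free baseline.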

[3] = inhibition of TGF-β stimulated pSMAD3 formation, BEAS-2B cells

Row | SMILES | Ki [1] | IC50 [2, 3] | IC50 ([2]; BEAS-2B)
1 | COC(=O)c1cnc2ccc(-c3cn[nH]c3-c3cccc(C)n3)nc2c1 [Compound 53, methyl 6-[5-(6-methyl-2-pyridyl)-1H-pyrazol-4-yl]-1,5-naphthyridine-3-carboxylate] | 0.0398 to 0.316 nM | 25.1 to 158 nM | –
2 | Cc1nc(-c2n[nH]cc2-c2ccc3ncc(-c4nc(C(F)(F)F)n5c4CNCC5)cc3n2)ccc1F [Compound 51, 2-[3-(5-fluoro-6-methyl-2-pyridyl)-1H-pyrazol-4-yl]-7-[3-(trifluoromethyl)-5,6,7,8-tetrahydroimidazo[1,5-a]pyrazin-1-yl]-1,5-naphthyridine] | 0.0398 to 0.316 nM | 25.1 to 158 nM | –
3 | COc1[nH]nc(-c2cccc(C)n2)c1-c1ccc2ncc(N3CCC(N4CCN(C)CC4)CC3)cc2n1 [Compound 112, 2-[5-methoxy-3-(6-methyl-2-pyridyl)-1H-pyrazol-4-yl]-7-[4-(4-methylpiperazin-1-yl)-1-piperidyl]-1,5-naphthyridine] | 0.0398 to 0.316 nM | 200 to 1260 nM | –
4 | Cc1cccc(-c2nn(C3CCCCO3)cc2-c2ccc3ncc(-c4cnoc4)cc3n2)n1 (centres unmarked) [Compound 203, 4-[6-[3-(6-methyl-2-pyridyl)-1-tetrahydropyran-2-yl-pyrazol-4-yl]-1,5-naphthyridin-3-yl]isoxazole] | 0.398 to 3.16 nM | 200 to 1260 nM | –
5 | Cc1cccc(-c2n[nH]cc2-c2ccc3ncc(CCC(=O)N4CCOCC4)cc3n2)n1 [Compound 385, 3-[6-[3-(6-methyl-2-pyridyl)-1H-pyrazol-4-yl]-1,5-naphthyridin-3-yl]-1-morpholino-propan-1-one] | 0.398 to 3.16 nM | 25.1 to 158 nM | –
6 | Cc1cccc(-c2n[nH]cc2-c2ccc3nc(C4CCCN4)c(-c4cn[nH]c4)cc3c2)n1 (centres unmarked) [Compound 291, 6-[3-(6-methyl-2-pyridyl)-1H-pyrazol-4-yl]-3-(1H-pyrazol-4-yl)-2-pyrrolidin-2-yl-quinoline] | 3.98 to 31.6 nM | 1580 to 10000 nM | –
7 | CCOC(=O)Cn1cc(-c2cnc3ccc(-c4c[nH]nc4-c4cccc(C)n4)nc3c2)nn1 [Compound 76, ethyl 2-[4-[6-[3-(6-methyl-2-pyridyl)-1H-pyrazol-4-yl]-1,5-naphthyridin-3-yl]triazol-1-yl]acetate] | 0.0398 to 0.316 nM | 25.1 to 158 nM | –
8 | Cc1cccc(-c2n[nH]cc2-c2ccc3ncc(N4CCN(CCNC(C)C)CC4)cc3n2)n1 [Compound 637, N-[2-[4-[6-[3-(6-methyl-2-pyridyl)-1H-pyrazol-4-yl]-1,5-naphthyridin-3-yl]piperazin-1-yl]ethyl]propan-2-amine] | 0.0398 to 0.316 nM | 25.1 to 158 nM | –
9 | Cc1cccc(-c2[nH]ncc2-c2ccc3ncc(C(=O)OC4CCNCC4)cc3n2)n1 [Compound 485, 4-piperidyl 6-[5-(6-methyl-2-pyridyl)-1H-pyrazol-4-yl]-1,5-naphthyridine-3-carboxylate] | 0.0398 to 0.316 nM | 25.1 to 158 nM | –
10 | Cc1nc(-c2n[nH]cc2-c2ccc3ncc(-c4ncn5c4NCC5)cc3n2)ccc1F [Compound 284, 7-(2,3-dihydro-1H-imidazo[1,5-a]imidazol-7-yl)-2-[3-(5-fluoro-6-methyl-2-pyridyl)-1H-pyrazol-4-yl]-1,5-naphthyridine] | 0.0398 to 0.316 nM | 25.1 to 158 nM | –
11 | Cc1nc(-c2n[nH]cc2-c2ccc3ncc(N4CCCNCC4)cc3n2)ccc1F [Compound 318, 7-(1,4-diazepan-1-yl)-2-[3-(5-fluoro-6-methyl-2-pyridyl)-1H-pyrazol-4-yl]-1,5-naphthyridine] | 0.0398 to 0.316 nM | 25.1 to 158 nM | –
12 | Cc1cccc(-c2n[nH]cc2-c2ccc3ncc(N4C[C@@H](C)NC[C@H]4C)cc3n2)n1 (racemic) [Compound 462, 2-[3-(6-methyl-2-pyridyl)-1H-pyrazol-4-yl]-7-[rac-(2R,5R)-2,5-dimethylpiperazin-1-yl]-1,5-naphthyridine] | 0.398 to 3.16 nM | 25.1 to 158 nM | –
13 | Cc1nc(-c2n[nH]cc2-c2ccc3ncc(N4CCC(N5CCN(C)CC5)CC4)cc3n2)ccc1F [Compound 539, 2-[3-(5-fluoro-6-methyl-2-pyridyl)-1H-pyrazol-4-yl]-7-[4-(4-methylpiperazin-1-yl)-1-piperidyl]-1,5-naphthyridine] | < 0.0316 nM | 25.1 to 158 nM | –
14 | Cc1cccc(-c2n[nH]cc2-c2ccc3ncc(-c4cnn5c4NCC5)cc3n2)n1 [Compound 570, 7-(2,3-dihydro-1H-imidazo[1,2-b]pyrazol-7-yl)-2-[3-(6-methyl-2-pyridyl)-1H-pyrazol-4-yl]-1,5-naphthyridine] | < 0.0316 nM | < 20 nM | –
15 | Cc1cccc(-c2nnn(C)c2-c2ccc3ncc(N4CCC(N(C)C)C4)cc3c2)n1 (racemic) [Compound 25, rac-(3S)-N,N-dimethyl-1-[6-[3-methyl-5-(6-methyl-2-pyridyl)triazol-4-yl]-3-quinolyl]pyrrolidin-3-amine] | 0.0398 to 0.316 nM | 25.1 to 158 nM | –
16 | CNc1ccnc2ccc(-c3c[nH]nc3-c3cccc(C)n3)nc12 [Compound 838, N-methyl-6-[3-(6-methyl-2-pyridyl)-1H-pyrazol-4-yl]-1,5-naphthyridin-4-amine] | 0.398 to 3.16 nM | 25.1 to 158 nM | –
17 | Cc1cccc(-c2nc3ccccn3c2-c2ccc3ncc(N4CCC(N(C)C)C4)cc3c2)n1 (centres unmarked) [Compound 272, N,N-dimethyl-1-[6-[2-(6-methyl-2-pyridyl)imidazo[1,2-a]pyridin-3-yl]-3-quinolyl]pyrrolidin-3-amine] | < 0.0316 nM | 25.1 to 158 nM | –

The next lines start with results.

Row | Ki [1] | SMILES | IC50 [2, 3] | IC50 ([2]; BEAS-2B)
18 | 0.0398 to 0.316 nM | Cc1cccc(-c2[nH]ncc2-c2ccc3ncc(OC(=O)[C@H]4C[C@@H](N)C4)cc3c2)n1 [Compound 1032, 6-(5-(6-methylpyridin-2-yl)-1H-pyrazol-4-yl)quinolin-3-yl (1s,3s)-3-aminocyclobutane-1-carboxylate] | – | < 20 nM
19 | 0.0398 to 0.316 nM | Cc1cccc(-c2[nH]nnc2-c2ccc3ncc(NCCN4CCN(C(C)C)CC4)cc3c2)n1 [Compound 621, N-(2-(4-isopropylpiperazin-1-yl)ethyl)-6-(5-(6-methylpyridin-2-yl)-1H-1,2,3-triazol-4-yl)quinolin-3-amine] | 25.1 to 158 nM | –
20 | 0.398 to 3.16 nM | Cc1cccc(-c2[nH]ncc2-c2ccc3nccc(C(=O)OC[C@@H]4CCCCN4)c3c2)n1 [Compound 1085, [(2S)-2-piperidyl]methyl 6-[5-(6-methyl-2-pyridyl)-1H-pyrazol-4-yl]quinoline-4-carboxylate] | 25.1 to 158 nM | –
21 | 0.0398 to 0.316 nM | Cc1cccc(-c2[nH]ncc2-c2ccc3nccc(C(=O)OCC4CCNCC4)c3c2)n1 [Compound 1225, 4-piperidylmethyl 6-[5-(6-methyl-2-pyridyl)-1H-pyrazol-4-yl]quinoline-4-carboxylate] | 25.1 to 158 nM | –
22 | 0.0398 to 0.316 nM | Cc1cccc(-c2[nH]cnc2-c2ccc3ncc(-c4cn5c(n4)CNCC5)cc3c2)n1 [Compound 645, 6-[5-(6-methyl-2-pyridyl)-1H-imidazol-4-yl]-3-(5,6,7,8-tetrahydroimidazo[1,2-a]pyrazin-2-yl)quinoline] | 200 to 1260 nM | –
23 | 0.0398 to 0.316 nM | Cc1cccc(-c2[nH]ncc2-c2ccc3ncc(C(=O)O[C@@H]4CCCNC4)cc3c2)n1 [Compound 1203, [(3R)-3-piperidyl] 6-[5-(6-methyl-2-pyridyl)-1H-pyrazol-4-yl]quinoline-3-carboxylate] | 25.1 to 158 nM | –
24 | 0.0398 to 0.316 nM | Cc1cccc(-c2[nH]cnc2-c2ccc3ncc(N4CC5(CC(N)C5)C4)cc3c2)n1 [Compound 624, 2-[6-[5-(6-methyl-2-pyridyl)-1H-imidazol-4-yl]-3-quinolyl]-2-azaspiro[3.3]heptan-6-amine] | 25.1 to 158 nM | –
25 | 0.0398 to 0.316 nM | Cc1cccc(-c2[nH]ncc2-c2ccc3ncc(C(=O)O[C@H]4CCCNC4)cc3c2)n1 [Compound 1201, [(3S)-3-piperidyl] 6-[5-(6-methyl-2-pyridyl)-1H-pyrazol-4-yl]quinoline-3-carboxylate] | 25.1 to 158 nM | –
26 | 0.0398 to 0.316 nM | Cc1cccc(-c2[nH]cnc2-c2ccc3ncc(C(=O)OCC4CC5(CNC5)C4)cc3c2)n1 [Compound 1116, 2-azaspiro[3.3]heptan-6-ylmethyl 6-[5-(6-methyl-2-pyridyl)-1H-imidazol-4-yl]quinoline-3-carboxylate] | 200 to 1260 nM | –
27 | < 0.0316 nM | Cc1cccc(-c2[nH]ncc2-c2ccc3ncc(C(=O)OCCN4CCC[C@H](N)C4)cc3c2)n1 [Compound 1191, 2-[(3S)-3-amino-1-piperidyl]ethyl 6-[5-(6-methyl-2-pyridyl)-1H-pyrazol-4-yl]quinoline-3-carboxylate] | 25.1 to 158 nM | –
28 | 0.0398 to 0.316 nM | COC(=O)[C@@H]1CN(CCNc2cnc3ccc(-c4nc[nH]c4-c4cccc(C)n4)cc3c2)CCN1 [Compound 717, methyl (2S)-4-[2-[[6-[5-(6-methyl-2-pyridyl)-1H-imidazol-4-yl]-3-quinolyl]amino]ethyl]piperazine-2-carboxylate] | 25.1 to 158 nM | –
